The nature of series [1]: Storage stability of amorphous tenofovir alafenamide hemifumarate and premixes, HPLC purity. The protocol:
As used herein, a compound or pharmaceutical composition is considered “stable” where the HPLC purity of the compound or premix changes by less than about 1% when stored at 5±3° C. and/or at 25° C./60% relative humidity (RH). In certain embodiments, the “stable” compound or premix is stored at 5±3° C. In other embodiments, the “stable” compound or premix is stored at 25° C./60% relative humidity (RH).
Further, the stability of certain embodiments of the premix of amorphous tenofovir alafenamide hemifumarate can be measured by PXRD and HPLC. Thus, HPLC analyses were also performed. HPLC separations were performed on a Waters Alliance 2695 HPLC system with UV detector. Data was collected and analyzed with Empower chromatography software or equivalent. The separation was performed on an X-Bridge Phenyl, 250×4.6 mm, 5 μm column with a mobile phase flow rate of 0.7 mL/min and injection volume of 10 μL. Separations were performed by gradient elution with mobile 1.75 mM tetrabutylammonium bisulfate (pH 2.0) in 5% THF (mobile phase A) and 70:30 acetonitrile:methanol (mobile phase B) as specified in the table below.
The column oven temp was 20° C. and UV detector was set to 260 nm. The purity of the premix was also measured by HPLC using similar conditions.

Series [2] can be described thus: Storage stability of amorphous tenofovir alafenamide hemifumarate and premixes, PXRD pattern. Type of series: physicochemical. The protocol:
The amorphous form of tenofovir alafenamide hemifumarate of the present disclosure may be characterized by a PXRD pattern. Thus, the PXRD patterns of the amorphous form of tenofovir alafenamide hemifumarate were obtained on BRUKER D-8 Discover powder diffractometer equipped with goniometer of θ/2θ configuration and Lynx Eye detector. The Cu-anode X-ray tube was operated at 40 kV and 30 mA. The experiments were conducted over the 2θ range of 2.0°-50.0°, 0.030° step size and 0.4 seconds step time.
Thus, the PXRD patterns of several embodiments of the present disclosure were obtained on BRUKER D-8 Discover powder diffractometer equipped with goniometer of θ/2θ configuration and Lynx Eye detector. The Cu-anode X-ray tube was operated at 40 kV and 30 mA. The experiments were conducted over the 2θ range of 2.0°-50.0°, 0.030° step size and 0.4 seconds step time.

For `CC(C)OC(=O)[C@H](C)N[P@](=O)(CO[C@H](C)Cn1cnc2c(N)ncnc21)Oc1ccccc1` [tenofovir alafenamide hemifumarate], the “HPLC purity (%)” value in series [1] (at 5 ± 3° C., 3 months) came out at 99.45%; in series [1] (at 5 ± 3° C., 6 months), 99.54%; in series [1] (at 5 ± 3° C., Initial), 99.53%; in series [1] (at 25° C./60% RH, 3 months) it was 99.36%; in series [1] (at 25° C./60% RH, 6 months), 99.48%; in series [1] (at 25° C./60% RH, Initial) it was 99.53%. In addition, the “degradation or change in PXRD pattern on storage” value in series [1] (stored at 5±3° C. and at 25° C./60% RH, 3 and 6 months, HPLC and PXRD) was “no significant degradation or change in PXRD pattern”. Besides, the PXRD entry in series [2] (at 5 ± 3° C., 3 months) is on record as “Stable”; in series [2] (at 5 ± 3° C., 6 months), “Stable”; in series [2] (at 5 ± 3° C., Initial), “Amorphous”; in series [2] (at 25° C./60% RH, 3 months), “Stable”; in series [2] (at 25° C./60% RH, 6 months), “Stable”; in series [2] (at 25° C./60% RH, Initial) it was “Amorphous”.

Values taken from patent US20200261479A1, “PROCESSES FOR THE PREPARATION OF AMORPHOUS TENOFOVIR ALAFENAMIDE HEMIFUMARATE AND A PREMIX THEREOF” (MYLAN LABORATORIES LIMITED, priority 2015, published 2020).
